Test results taken from US5403850A, “Derivatives of P-substituted phenyl ester of pivalic acid” (Ono Pharmaceutical Co., Ltd., priority 1988, dated 1995).
Counter-ions that a name gives are not always drawn.

biological target: T1, elastase from human neutrophil (Homo sapiens, UniProt P08246); assay: Inhibitory effect on elastase (spectrophotometric, Suc-Ala-Pro-Ala-pNA substrate); type: biochemical; conditions: 1 mM Suc-Ala-Pro-Ala-pNA, tris-hydrochloric acid pH 8.0, 37° C. for 30 minutes, absorbance 405 nm
T1 construct: elastase from human neutrophil; from tissue; host or cells: human neutrophil
T1 sequence (P08246 30-247 limits assumed): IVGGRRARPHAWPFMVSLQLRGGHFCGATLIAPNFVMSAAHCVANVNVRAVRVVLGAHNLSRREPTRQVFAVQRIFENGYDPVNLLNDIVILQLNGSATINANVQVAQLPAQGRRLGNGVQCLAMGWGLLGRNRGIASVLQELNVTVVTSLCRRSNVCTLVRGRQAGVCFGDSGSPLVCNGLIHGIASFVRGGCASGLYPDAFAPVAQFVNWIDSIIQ
Experimental: The reaction mixture consisted of 1 mM Suc-Ala-Pro-Ala-pNA (dissolving in N-methylpyrrolidone to the concentration of 100 mM, and then adding 1/100 amount of the solution to the reaction mixture.), 0.1 M buffer solution of tris-hydrochloric acid (pH 8.0), 0.2 M sodium chloride aqueous solution, the sample solution of various concentrations and enzyme solution in a final volume of 1.0 ml was incubated at 37° C. for 30 minutes.
Inhibition percentage of the test compounds was calculated by the following equation: [formula]

Row | Structure (SMILES) | IC50
1 | CSCCC(NC(=O)c1ccccc1NS(=O)(=O)c1ccc(OC(=O)C(C)(C)C)c(C)c1)C(=O)O (racemic) [2(68), N-[o-(3-methyl-4-pivaloyloxybenzene)sulfonylaminobenzoyl]-dl-methionine] | 200 nM
2 | CC(C)(C)C(=O)Oc1ccc(S(N)(=O)=O)cc1 [1(2), p-sulfamoylphenyl ester of pivalic acid] | 770 nM
3 | CC(C)(C)C(=O)Oc1ccc(S(=O)(=O)n2ccnc2)cc1 [1(12), p-[(1-imidazolyl)sulfonyl]phenyl ester of pivalic acid] | 50 nM
4 | CC(C)(C)C(=O)Oc1ccc(S(=O)(=O)Nc2ccccn2)cc1 [1(14), p-[N-(α-pyridyl)sulfamoyl]phen-yl ester of pivalic acid] | 190 nM
5 | CC(C)(C)NS(=O)(=O)c1ccc(OC(=O)C(C)(C)C)cc1 [2(5), p-(N-tert-butylsulfamoyl)phenyl ester of pivalic acid] | 53 nM
6 | CCN(CC)C(=O)COC(=O)c1ccccc1NS(=O)(=O)c1ccc(OC(=O)C(C)(C)C)c(C)c1 [2(38), 2-methyl-4-[N-(o-(N,N-diethyl-carbamoylmethoxycarbonyl)phehyl)sulfamoyl]phenyl ester of pivalic acid] | 72 nM
7 | Cc1cc(S(=O)(=O)Nc2cccc3c2OC(C(=O)O)CO3)ccc1OC(=O)C(C)(C)C (stereo not shown) [2(49), 2-methyl-4-[N-(1,4-dioxa-2-carboxy-8-yl-naphthalene)sulfamoyl]phenyl ester of pivalic] | 150 nM
8 | Cc1cc(S(=O)(=O)Nc2ccccc2OCCCC(=O)O)ccc1OC(=O)C(C)(C)C [2(51), 2-methyl-4-[N-(o-carboxypropoxy-phenyl)sulfamoyl]phenyl ester of pivalic acid] | 640 nM
9 | Cc1cc(S(=O)(=O)Nc2ccccc2C(=O)N2CCC[C@H]2C(=O)O)ccc1OC(=O)C(C)(C)C [2(62), 2-methyl-4-[N-(2-prolylcarbonylphenyl)sulfamoyl] phenyl ester of pivalic acid] | 690 nM
10 | Cc1cc(S(=O)(=O)Nc2ccccc2C(=O)N[C@@H](Cc2ccccc2)C(=O)O)ccc1OC(=O)C(C)(C)C [2(67), N-[o-(3-methyl-4-pivaloyloxybenzene)sulfonylaminobenzoyl]-L-phenylalanine] | 410 nM
11 | Cc1cc(S(=O)(=O)Nc2ccccc2C(=O)N[C@@H](CCCCN)C(=O)O)ccc1OC(=O)C(C)(C)C [2(69), N-[o-(3-methyl-4-pivaloyloxybenzene)sulfonylaminobenzoyl]-L-lysine. hydrochloride] | 520 nM
12 | CC(C)(C)C(=O)Oc1ccc(S(=O)(=O)NCCc2ccccc2)cc1 [4(5), p-(N-phenethylsulfamoyl)phenyl ester of pivalic acid] | 72 nM

Compounds with a lower IC50, results first:

Row | IC50 | Structure (SMILES)
13 | 42 nM | CC(C)(C)C(=O)Oc1ccc(S(=O)(=O)NC2CCCCC2)cc1 [1(3), p-(N-cyclohexylsulfamoyl)phenyl ester of pivalic acid]
14 | 30 nM | CC(C)(C)C(=O)Oc1ccc(S(=O)(=O)Nc2ccc(Cl)cc2)cc1 [1(8), p-[N-(4-chlorophenyl)sulfamoyl] phenyl ester of pivalic acid]
15 | 48 nM | CC(=O)Oc1ccc(N(S(=O)(=O)c2ccc(OC(=O)C(C)(C)C)cc2)S(=O)(=O)c2ccc(OC(=O)C(C)(C)C)cc2)cc1 [1(15)]
16 | 21 nM | CSc1ccc(NS(=O)(=O)c2ccc(OC(=O)C(C)(C)C)cc2)c(C(=O)NCC(=O)O)c1 [2(80), N-[5-methylthio-2-(p-pivaloyoxy-benzene)sulfonylaminobenzoyl] glycine]
17 | 24 nM | CCCSc1ccc(NS(=O)(=O)c2ccc(OC(=O)C(C)(C)C)cc2)c(C(=O)NCC(=O)O)c1 [2(87), N-[2-(p-pivaloyloxybenzene)sulfonylamino-5-propylthiobenzoyl] glycine]
18 | 23 nM | CC(C)(C)C(=O)Oc1ccc(S(=O)(=O)Nc2ccccc2C(=O)O)cc1 [5(3), p-[N-(o-carboxyphenyl)sulfamoyl] phenyl ester of pivalic acid]
19 | 31 nM | CN(c1ccc(Br)cc1)S(=O)(=O)c1ccc(OC(=O)C(C)(C)C)cc1 [Example 1, p-[N-(p-bromophenyl)-N-methylsulfamoyl] phenyl ester of pivalic]
